Like-named read-outs stand apart in the source and are kept apart here. Peptide text beside a SMILES is read from it.
Tests used:
NK cells [1] = assay: NK cell chemokine/cytokine production in response to Trastuzumab-coated SK-BR3 cells; format: cell-based, human; conditions: for production of any chemokines/cytokines: compound alone; for production of GM-CSF / production of IL-8 / production of IP-10 / production of MCP-1 / production of MIP-1α / production of MIP-1β / production of RANTES: presence of immobilized IgG and IL-2
Procedure: (§1) As shown herein, immunomodulatory compounds, either alone or in combination with other agents, can alter the expression of several growth factors.
The effects of immunomodulatory compounds lenalidomide and pomalidomide on NK cell chemokine/cytokine production in response to Trastuzumab-coated SK-BR3 cells were assessed using procedures substantially similar to those described in Section 6.6., above.

[2] = system: Cetuximab-coated HCT-116 cells; assay: NK cell cytotoxicity against Cetuximab-coated HCT-116 cells; format: cell-based, human; conditions: presence of IL-2
[3] = system: Rituximab-coated Raji cells; assay: ADCC assay: NK cell specific lysis of Rituximab-coated Raji cells; format: cell-based, human; conditions: for EC50: Homo sapiens, Raji
Procedure: (§2) Preparation of NK cells: Purified NK cells (5×10^4) were seeded in 96-well U-bottom plates in 100 μL of 10% RPMI-1640 medium, supplemented with human AB+ serum. […] The cells were then incubated at 37° C. overnight.
(§3) Preparation of Rituximab-coated target cancer cells: Various NHL cell lines (Namalwa, Raji, Farage, and Jeko-1) were treated with 20 μg/mL Rituximab (Rituximab, Genentech, Inc.) for 30 minutes at 37° C. Excess unbound Rituximab was then removed by a washing step.
(§4) Addition of Rituximab-coated target cells to NK cells: The Rituximab-coated target cells (5×103/100 μL/well) were added to the pretreated effector NK cells at a ratio of 10:1. The cells were then co-incubated for 4 hours at 37° C.
(§5) Cytotoxicity analysis: NK cell cytotoxicity against the tumor cell lines was analyzed using a standard lactate dehydrogenase release assay (CytoTox 96 Non-radioactive Cytotoxicity Assay, Promega) to measure ADCC in a 50 μL aliquot of supernatant. The experimental release was corrected by subtraction of the spontaneous release of effector cells at the corresponding dilution. Spontaneous release from target cells alone was <15% of the maximum release as determined with target cells lysed in 1% Triton X-100.
(§6) Determination of effector: target ratio: Specific lysis for each effector-to-target (E:T) cell ratio was calculated using the following formula: % specific lysis=([experimental release−spontaneous release]/[maximum release−spontaneous release])×100.
Enhancement of NK cell cytotoxicity by immunomodulatory compounds lenalidomide and pomalidomide was assessed following procedures substantially similar to those described in Section 6.3, above.

pPLC-γ2 = assay: Immunoblot analysis of pPLC-γ2; format: cell-based; conditions: IL-12 plus IgG
Procedure: (§7) FIG. 7 is a panel of bar graphs showing the quantitation of an immunoblot comparison of cells treated with either IL-12 alone, IgG alone, IL-12 plus IgG, or IL-12 plus IgG plus lenalidomide (at 0.1 μM to 10 μM).
(§8) Additionally, administration of the immunomodulatory compound lenalidomide was capable of increasing both pPLC-γ2 and pERK levels (FIGS. 7B and 7C). Increase in the levels of these proteins were also observed in connection with pomalidomide (FIGS. 13A and 13B). PLC-γ2 is involved in the maturation and activation of NK cells and triggers the release of lytic granules (Regunathan et al., 2006, Jour. Immunol 175:749-754, which is incorporated by reference herein in its entirety). PLC-γ2 also induces IFN-γ production and is necessary for cytotoxicity and chemokine production.

Fas-L = Fas-L expression on CD56+ NK cells (flow cytometry); format: cell-based, human
Procedure: Cytometry was undertaken on 50 μL samples containing 1×10^6 cells/mL in washing buffer, 2% FBS with 0.1% NaN3 in PBS. Fluorochrome-conjugated antibodies, unconjugated antibodies, and isotype control mAb were obtained from PharMingen (San Diego, Calif.). The cells were stained with anti-CD56-PE, anti-FasL-FITC or isotype control mAb (1 μg/10^6 cells), and analyzed by flow cytometry according to the manufacturer's instructions.

[4] = system: Rituximab-coated CD20+ Raji cells; assay: Monocyte-mediated lysis (ADCC) of Rituximab-coated Raji cells; format: cell-based, human; conditions: for monocyte-mediated lysis: data not shown
Procedure: (§9) NK cells and monocytes were isolated from fresh, buffy-coated, whole blood by 30-minute incubation with RossetteSep cocktail (StemCell Technologies, Inc.) followed by Ficoll-Hypaque density gradient centrifugation. CD56+ NK cells were isolated to ˜85% purity and CD14+ monocytes were isolated to ˜80% purity as determined by flow cytometry.
as §3, §5, §6
To evaluate monocyte ADCC, similar methods were used to prepare the monocytes.

[5] = system: Trastuzumab-coated SK-BR-3 cells; assay: NK cell cytotoxicity against Trastuzumab-coated SK-BR-3 cells; format: cell-based, human
[6] = system: Src homology-2 containing inositol 5′-phosphatase 1 (phospho-SHIP-1); assay: Immunoblot analysis of phospho-SHIP-1; format: cell-based; conditions: IL-12 plus IgG; lenalidomide 10 μM
Procedure: as §7
SHIP-1 is a negative regulator of cell proliferation, survival, and activation and also a negative regulator of Fc-γ and cytokine receptor-mediated signaling (Parihar et al., 2005, Cancer Res. 65:9099-9107). The inhibition of phospho-SHIP-1 increases IFN-γ release following NK cell stimulation with IgG and IL-12 (Parihar et al., 2005, Cancer Res. 65:9099-9107, which is incorporated by reference herein in its entirety) and thus may contribute to the mechanism of action of lenalidomide.

pERK = assay: Immunoblot analysis of pERK; format: cell-based; conditions: IL-12 plus IgG
Procedure: as §7, §8

NK cells [7] = assay: NK cell expression of growth factors/chemokines (IL-2, IgG, lenalidomide); format: cell-based, human; conditions: lenalidomide 0.1, 1 or 10 μM with IL-2, IgG
Description: as §1

NK cells [8] = assay: NK IgG-induced IFN-γ assay; format: cell-based, human; conditions: for EC50: Homo sapiens, read-out: EC50 of enhancement of IFN-γ production
Procedure: as §9
(§10) To determine whether lenalidomide enhances IFN-γ production, the following assay was performed. Human IgG (Sigma), at a concentration of 100 μg/mL was coated onto 96-well, flat-bottom plates at 4° C. overnight. The unbound IgG was then washed away. […] Lenalidomide (Revlimid®, Celgene Corporation, Summit, N.J.) was added to the wells in the concentration range of 0.008-5 μM. After a 48-hour incubation, the supernatants were harvested and interferon-gamma (IFN-γ), as well as granzyme B and perforin levels were measured.

[9] = system: Rituximab-coated Farage cells; assay: ADCC assay: NK cell specific lysis of Rituximab-coated Farage cells; format: cell-based, human; conditions: E:T=10:1; for EC50: Homo sapiens, Farage; for increase of cell lysis: vs Rituximab-only treated cells
Procedure: as §2, §3, §4, §5, §6

perforin = assay: NK cell perforin production; format: cell-based, human
Procedure: as §10

granzyme B = assay: NK cell granzyme B production; format: cell-based, human
Procedure: as §10

[10] = system: Rituximab-coated Farage cells; assay: Monocyte-mediated lysis (ADCC) of Rituximab-coated Farage cells; format: cell-based, human; conditions: E:T 50:1; lenalidomide at 10 μM; from 5%; no IL-2
Procedure: as §9, §3, §5
Determination of effector: target ratio: Specific lysis for each effector-to-target (E:T) cell ratio was calculated using the following formula: % specific lysis=([experimental release−spontaneous release]/[maximum release−spontaneous release])×100. […]

[11] = system: Rituximab-coated CD20+ Jeko-1 (mantle cell lymphoma) cells; assay: ADCC assay: NK cell-mediated killing of Rituximab-coated CD20+ Jeko-1 cells; format: cell-based, human; conditions: for NK cell-mediated killing: E:T 50:1; for increase in tumor cell killing above background: single agent
Procedure: as §2, §3
[…] The cells were then co-incubated for 4 hours at 37° C.
as §5, §6

[12] = system: Rituximab-coated Namalwa cells; assay: ADCC assay: NK cell specific lysis of Rituximab-coated Namalwa cells; format: cell-based, human; conditions: E:T=10:1; for EC50: Homo sapiens
Procedure: as §2, §3, §4, §5, §6

[13] = system: Rituximab-treated target cells; assay: ADCC in the presence of anti-Fas-L or granzyme inhibitor; format: cell-based; conditions: lenalidomide plus Rituximab
Description: Lenalidomide addition had no effect on perforin production, however (FIGS. 6B and 6C).

[14] = lenalidomide 1 μM with IL-2, E:T 50:1
[15] = inhibitor 40 μM/mL added 1 hour prior to lenalidomide and IL-2

## Nc1cccc2c1C(=O)N(C1CCC(=O)NC1=O)C2=O (stereo not shown) [pomalidomide, 1,3-dioxo-2-(2,6-dioxopiperidin-3-yl)-4-aminoisoindoline]
NK cells [1]
  production of any chemokines/cytokines: did not induce
  production of GM-CSF: dose-dependently enhanced
  production of IL-8: dose-dependently enhanced
  production of IP-10: dose-dependently enhanced
  production of MCP-1: dose-dependently enhanced
  production of MIP-1α: dose-dependently enhanced
  production of MIP-1β: not
  production of RANTES: dose-dependently enhanced
[2]
  NK cell cytotoxicity: significantly increases
[3]; presence of IL-2 (FIG. 8B/9B)
  NK cell cytotoxicity: significantly increases
[3]; presence of IL-12 (FIG. 8E/9E)
  NK cell cytotoxicity: significantly increases
pPLC-γ2
  pPLC-γ2 levels: Increase
Fas-L; FIG. 12
  NK cell Fas-L expression, results compared with lenalidomide: similar
[4]
  monocyte-mediated lysis: enhance
[5]; presence of IL-2
  NK cell cytotoxicity: significantly increases
[5]; presence of IL-12
  NK cell cytotoxicity: significantly increases
[6]
  levels of phospho-SHIP-1: decreased
pERK
  pERK levels: Increase

## Nc1cccc2c1CN(C1CCC(=O)NC1=O)C2=O (stereo not shown) [lenalidomide, 1-oxo-2-(2,6-dioxopiperidin-3-yl)-4-aminoisoindoline]
NK cells [1]
  production of any chemokines/cytokines: did not induce
  production of GM-CSF: dose-dependently enhanced
  production of IL-8: dose-dependently enhanced
  production of IP-10: dose-dependently enhanced
  production of MCP-1: dose-dependently enhanced
  production of MIP-1α: dose-dependently enhanced
  production of MIP-1β: not
  production of RANTES: dose-dependently enhanced
[2]
  NK cell cytotoxicity: significantly increases
NK cells [7]
  NK cell expression of GM-CSF: increased
  NK cell expression of IL-6: decreased
  NK cell expression of IL-8: increased
  NK cell expression of IP-10: increased
  NK cell expression of RANTES: increased
  NK cell expression of monocyte chemotactic protein-1 (MCP-1): increased
[3]; E:T=10:1, presence of IL-2 or IL-12, vs Rituximab-only treated cells
  increase of NK cell specific lysis: 2 fold
[3]; IL-2, E:T=10:1
  EC50: 100 nM
[3]; IL-12, E:T=10:1
  EC50: 140 nM
[3]; presence of IL-2 (FIG. 8B/9B)
  NK cell cytotoxicity: significantly increases
[3]; presence of IL-12 (FIG. 8E/9E)
  NK cell cytotoxicity: significantly increases
NK cells [8]; immobilized IgG + IL-2
  EC50: 90 nM
NK cells [8]; immobilized IgG + IL-12
  EC50: 46 nM
NK cells [8]; lenalidomide 0.008-5 μM + human IgG + IL-2, vs IgG plus IL-2 alone
  enhancement of IFN-γ production of NK cells: 3 fold
NK cells [8]; lenalidomide 0.008-5 μM + human IgG + IL-12, vs IgG plus IL-12 alone
  enhancement of IFN-γ production of NK cells: 8 fold
NK cells [8]; lenalidomide alone or lenalidomide plus IgG, no IL-2/IL-12
  IFN-γ production: no IFN-γ was observed
[9]; IL-2
  EC50: 42 nM
  increase of cell lysis: 1.8 fold
[9]; IL-12
  EC50: 33 nM
  increase of cell lysis: 1.6 fold
pPLC-γ2
  pPLC-γ2 levels: increasing
Fas-L; lenalidomide 1 μM + IL-2 + immobilized IgG
  enhancement of NK cell Fas-L expression: > 2 fold
Fas-L; lenalidomide 1 μM + IL-2 + immobilized IgG, from <2%
  NK cell Fas-L expression: 25%
Fas-L; lenalidomide 10 μM + immobilized IgG, from <5%
  percentage of CD56+ NK cells expressing Fas-L: > 10%
Fas-L; lenalidomide 0.1-10 μM + IL-2 10 ng/mL + immobilized IgG
  NK cell Fas-L expression: greater than that achieved by either agent alone
perforin; with IL-2
  perforin production: no effect
[4]
  monocyte-mediated lysis: enhance
[4]; [14]
  increase in tumor cell-lysis activity: 2 fold
  monocyte-mediated killing: > 60%
[5]; presence of IL-2
  NK cell cytotoxicity: significantly increases
[5]; presence of IL-12
  NK cell cytotoxicity: significantly increases
Granzyme B; over that observed with IL-2 alone, dose-dependent
  granzyme B production: enhanced
[10]
  monocyte-mediated lysis (killing activity): 20%
[6]
  levels of phospho-SHIP-1: decreased
[11]; lenalidomide 1 μM + IL-2, Rituximab-coated cells
  NK cell-mediated killing: 95%
[11]; lenalidomide and Rituximab combined, background killing=40%
  enhancement of NK cell-mediated killing above background: 55%
[11]; background killing=40%
  increase in tumor cell killing above background: 5%
[11]; vs Rituximab-only treatment
  increase in NK cell-mediated killing activity: 1.4 fold
[11]; vs uncoated (control) cells
  increase in NK cell-mediated killing activity: > 2 fold
pERK
  pERK levels: increasing
[12]; presence of IL-2 or IL-12, vs Rituximab-only treated cells
  increase of NK cell specific lysis: 5 fold
[12]; IL-2
  EC50: 190 nM
[12]; IL-12
  EC50: 240 nM

## Rituximab: anti-CD20 antibody Rituximab (Rituxan®)
[4]; Rituximab-coated cells, no immunomodulatory compound, E:T 50:1
  maximum killing activity: ~30%
[11]; Rituximab-coated cells without lenalidomide
  NK cell-mediated killing: 70%
[11]; background killing=40%
  increase in tumor cell killing above background: approximately 30%

## CC[C@H](C)[C@H](NC(C)=O)C(=O)N[C@@H](CCC(=O)O)C(=O)N[C@H](C(=O)N[C@H](C=O)CC(=O)O)[C@@H](C)O [granzyme B inhibitor II] (Ac-IETD-aldehyde)
[13]
  prevention of ADCC: totally prevented
perforin; [15]
  effect on IL-2-stimulated perforin production: inactive
Granzyme B; [15]
  effect on IL-2 stimulated granzyme B production: abrogated

Source: US20100098657A1, “Method of Treating Cancer with Immunomodulatory Compounds and IgG” (priority 2007, published 2010)
